Source: PMC7865305, “Pseudopeptide Amyloid Aggregation Inhibitors: In Silico, Single Molecule and Cell Viability Studies” (International Journal of Molecular Sciences, 2021)
Square brackets hold non-standard residues; d marks the D form. Peptide text beside a SMILES is read from it. * marks the point of attachment. NMeF = CN[C@@H](Cc1ccccc1)C(=O)O; Myristoyl = CCCCCCCCCCCCCC(=O)*; NMeL = CN[C@@H](CC(C)C)C(=O)O; Orn = NCCC[C@H](N)C(=O)O; Dab = NCC[C@H](N)C(=O)O; βAla = NCCC(=O)O

What was measured:
[1] = test system: Aβ(1–42)-Aβ(1–42) dimerization; design: method as in 2 sources, ref [21] = [21]; PMID 24321883; doi:10.1016/j.bios.2013.10.060; 21. Hane F.T. Lee B.Y. Petoyan A. Rauk A. Leonenko Z. Testing synthetic amyloid-β aggregation inhibitor using single molecule atomic force spectroscopy Biosens. Bioelectron. 2014 54 492 498 10.1016/j. ||| ref [30] = [30]; PMID 28844735; doi:10.1016/j.bbapap.2017.07.022; 30. Robinson M. Mehrazma B. Opare S.K.A. Petoyan A. Lou J. Hane F.T. Rauk A. Leonenko Z. Pseudo-peptide Amyloid-β Blocking Inhibitors: Molecular Dynamics and Single Molecule Force Spectroscopy Study B; details: cited from earlier work; for Shift of Aβ binding probability across unbinding force distribution / Binding probability of Aβ: SMFS, ref [30]; for Binding probability of Aβ: no significant difference between inhibitors
[2] = test system: HT22 cells; assay type: cell-based, mouse; details: MTT; for HT22 cell viability with Aβ(1–42) and myristoylated inhibitor: 5 µM Aβ(1–42) with Myr-SG inhibitor, 24 h, Figure 7B, n = 3
Description: (§1) The MTT assay was used to evaluate the viability of HT22 cells exposed to inhibitor or mixtures of inhibitor with full length Aβ(1–42). HT22 cells were plated into 96-well cell culture plates at a cell density of 100,000 cells/mL in full growth media (DMEM/F12, with 10% FBS, 1% Pen/Strep) at 37°C, 5% CO2, until 80% confluence (20–22 h). Full growth media was exchanged for treatment media (containing Aβ or Aβ with SG inhibitor). After treatment, cells are then returned to incubator for 24 h. The media was then exchanged for phenol red-free DMEM/F12 containing 0.5 mg/mL MTT. Cells were returned to the incubator to metabolize the MTT for 3.5 h, after which, cells were solubilized in isopropanol, with 10% Triton X-100 and 0.1 M HCl. After solubilization, absorbance from the 96-well plates was read in Molecular Dynamics™ plate reader at 570 nm and 690 nm. The signal at 690 nm and media control was subtracted from the 570 nm reading prior to analysis. HT22 cells were a generous gift from Dr. Robert Cumming, PhD, University of Western Ontario.
Aβ(1–42) oligomers were prepared following protocols adapted from Stine et al.. Briefly, Aβ(1–42) was dissolved in HFIP to 1 mg/mL solution and aliquoted into microcentrifuge tubes, and allowed to evaporate under desiccant for 24 h, leaving behind a thin film of Aβ(1–42) monomers, which was stored at […] under desiccant. Immediately prior to use, Aβ(1–42) monomers were suspended in dimethyl sulfoxide (DMSO) at a concentration of 5 mM, vortexed for 30 s, pulse centrifuged for 30 s and then sonicated for 10 min at room temperature. The 5 mM Aβ(1–42) monomer solution prepared in DMSO was then diluted to 100 µM in cold DMEM/F12 media, then further diluted to 5 µM in fresh DMEM/F12 or DMEM/F12 containing SG inhibitor at various concentrations corresponding to a final ratio of 5:1, 2:1, 1:1 and 1:2 Aβ to SG. […]
Inhibitor toxicity to HT22 cells was assessed by treating cells with inhibitor (SGA1, Myr-SGA1, SGA3, Myr-SGA3 or SGC1) at concentrations of 2.5, 5.0 and 10.0 µM for 24 h in triplicates, for n = 4 repeats. […]

[3] = test system: HT22 cells; assay: SG inhibitor toxicity, MTT assay; assay type: cell-based, mouse; details: 24 h; for HT22 cell viability, inhibitor alone: HT22 cells, 2.5, 5.0 and 10.0 µM, MTT, n = 4, vs control, one-way ANOVA with Dunnett
Description: as §1
Inhibitor toxicity to HT22 cells was assessed by treating cells with inhibitor (SGA1, Myr-SGA1, SGA3, Myr-SGA3 or SGC1) at concentrations of 2.5, 5.0 and 10.0 µM for 24 h in triplicates, for n = 4 repeats. One-way ANOVA with Dunnett’s multiple comparisons test was performed to establish significance between inhibitor groups and vehicle-treated control, threshold for significance: α = 0.05. To assess SG inhibitor neuroprotection against Aβ(1–42) oligomers, Aβ(1–42) alone or Aβ(1–42) mixed with each inhibitor at the ratios described above were applied to cells in quadruplicates for n = 3 repeats. One-way ANOVA with Dunnett’s multiple comparisons was performed to establish significance between Aβ-SG inhibitor mixture and Aβ-treated control; threshold for significance: α = 0.05.

[4] = test system: Aβ(1–42); details: AFM, 110 μM Aβ(1–42), 1:1 ratio, 1, 6 and 24 h on mica, vs Aβ-only control; ref [21]; cited from earlier work
Description: In Hane et al., solutions of Aβ(1–42) (prepared by the Fezoui method) with and without SGA1 were deposited onto freshly cleaved mica at 1:1 ratio with a final concetration of 110 μM Aβ(1–42), and then incubated for 1, 6 and 24 h, before being washed, dried and than imaged by AFM (Figure 4, adapted with permission).

[5] = test system: Aβ(1–40); details: ThT fluorescence, 25 μM Aβ(1–40), 37 °C, 5 to 7 days; ref [33]; cited from earlier work
Description: Experimental validation of the effect of SGA1 on amyloid aggregation and structure was performed previously by several methods: including ThT fluorescence, circular dichroism (CD), Western blot and AFM imaging. The influence of SGA1 on Aβ(1–40) and Aβ(1–42) aggregation by ThT fluorescence assay was performed at a concentration of 25 μM Aβ(1–40) and Aβ(1–42) at 37 °C for 5 to 7 days, across a broad range of SG inhibitor concentration to determine the IC50 inhibitory ligand:Aβ ratio [33]. For SGA1, the IC50 ligand:Aβ(1–40) ratio occurred at 0.2, while the control, N-methylated KLVFF peptide (A ...

[6] = test system: Aβ(1–42); details: ThT fluorescence, 25 μM Aβ(1–42), 37 °C, 5 to 7 days; ref [33]; cited from earlier work
Description: Experimental validation of the effect of SGA1 on amyloid aggregation and structure was performed previously by several methods: including ThT fluorescence, circular dichroism (CD), Western blot and AFM imaging. The influence of SGA1 on Aβ(1–40) and Aβ(1–42) aggregation by ThT fluorescence assay was performed at a concentration of 25 μM Aβ(1–40) and Aβ(1–42) at 37 °C for 5 to 7 days, across a broad range of SG inhibitor concentration to determine the IC50 inhibitory ligand:Aβ ratio [33].

Compound | Shift of Aβ binding probability across unbinding force distribution [1] | Binding probability of Aβ [1] | HT22 cell viability with Aβ(1–42) and myristoylated inhibitor [2] | IC50 [3] | HT22 cell viability, inhibitor alone [3] | Number of Aβ binding events ([1]; SMFS proof-of-concept study, ref [21]) | Fibril length of Aβ(1–42) aggregates [4] | IC50 ligand:Aβ(1–40) ratio [5] | IC50 inhibitory ligand/Aβ1–42 ratio [6] | Effect on Aβ(1–42) toxicity ([2]; 5 µM Aβ(1–42), Aβ/SG 5:1, 2:1, 1:1, 1:2, 24 h, n = 3, vs Aβ-treated group)
CCCCCCCCCCCCCC(=O)N[C@@H](CCN)C(=O)N[C@@H](CCCN)C(=O)N(C)[C@@H](CC(C)C)C(=O)N[C@@H](Cc1ccccc1)C(=O)N(C)[C@@H](Cc1ccccc1)C(=O)N[C@@H](CC(C)C)C(=O)N1CCC[C@H]1C(=O)NCCC(=O)O [Myr-SGA1] (Myristoyl-[Dab][Orn][NMeL]F[NMeF]LP[βAla]-OH; N-terminus and C-terminus assumed) | decreased the binding probability at higher force | reduced the binding probability of Aβ | below 30% | ~7.5 µM | significant reductions in HT22 cell viability at 5 and 10 µM |  |  |  |  | 
CCCCCCCCCCCCCC(=O)N[C@@H](CCN)C(=O)N[C@@H](CCCN)C(=O)N(C)[C@@H](CC(C)C)C(=O)N[C@@H](Cc1ccccc1)C(=O)N(C)[C@@H](Cc1ccccc1)C(=O)N[C@@H](CC(C)C)C(=O)N[C@@H](C)C(=O)N[C@@H](CCC(=O)O)C(N)=O [Myr-SGA3] (Myristoyl-[Dab][Orn][NMeL]F[NMeF]LAE-NH2; C-terminus assumed) |  |  | below 30% | ~7.5 µM | significant reductions in HT22 cell viability at 5 and 10 µM |  |  |  |  | 
CC(=O)N[C@@H](CCN)C(=O)N[C@@H](CCCN)C(=O)N(C)[C@@H](CC(C)C)C(=O)N[C@@H](Cc1ccccc1)C(=O)N(C)[C@@H](Cc1ccccc1)C(=O)N[C@@H](CC(C)C)C(=O)N1CCC[C@H]1C(=O)NCCC(=O)O [SGA1] (Ac-[Dab][Orn][NMeL]F[NMeF]LP[βAla]-OH; N-terminus and C-terminus assumed) |  |  |  |  | no significant reduction in cell viability was observed | decreases the number Aβ binding events in a concentration dependent manner | greatly reduced | 0.2 | 0.5 | 
CC(=O)N[C@@H](CCN)C(=O)N[C@@H](CCCN)C(=O)N(C)[C@@H](CC(C)C)C(=O)N[C@@H](Cc1ccccc1)C(=O)N(C)[C@@H](Cc1ccccc1)C(=O)N[C@@H](CC(C)C)C(=O)N[C@@H](C)C(=O)N[C@@H](CCC(=O)O)C(N)=O [SGA3] (Ac-[Dab][Orn][NMeL]F[NMeF]LAE-NH2; N-terminus and C-terminus assumed) | more uniformly reduced binding probability across the unbinding force distribution | reduced the binding probability of Aβ |  |  | no significant reduction in cell viability was observed |  |  |  |  | 
Glu-Ala-(Me)Phe-Phe-(Me)Phe-Leu-Orn-Daba [SGC1] | increased the binding probability at higher force | reduced the binding probability of Aβ |  |  |  |  |  |  |  | no statistically significant effect
